What was measured:
Assay type in all cases: in vivo
[1] = tested on: waterhemp (common waterhemp, Amaranthus rudis); experiment: Test C pre-/postemergence greenhouse test, plant response rating 0-100
Outline: (§1)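 Scores run from 0, no effect, to 100, complete control, assigned by eye after treated plants and controls spent 13 to 15 days in a greenhouse. Soil-applied treatment went onto freshly sown seed in loam and sand; foliar treatment hit seedlings at the 1- to 4-leaf stage.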

[2] = tested on: barnyardgrass (Echinochloa crus-galli); experiment: as above
Outline: as §1

[3] = tested on: waterhemp_RES2, (ALS & HPPD resistant common waterhemp, Amaranthus rudis); experiment: Test E postemergence greenhouse test, plant response rating 0-100; details: scale 0 to 100
Procedure: At the same time, plants from these crop and weed species and also waterhemp_RES1, (ALS & Triazine resistant common waterhemp, Amaranthus rudis), and waterhemp_RES2, (ALS & HPPD resistant common waterhemp, Amaranthus rudis) were planted in pots containing Redi-Earth® planting medium (Scotts Company, 14111 Scottslawn Road, Marysville, Ohio 43041) comprising spaghnum peat moss, vermiculite, wetting agent and starter nutrients were treated with postemergence applications of test chemicals formulated in the same manner. Plants ranged in height from 2 to 18 cm for postemergence treatments (1- to 4-leaf stage).
Treated plants and controls were maintained in a greenhouse for 14 to 21 days, after which time all species were compared to controls and visually evaluated. Plant response ratings, summarized in Table E, are based on a scale of 0 to 100 where 0 is no effect and 100 is complete control. A dash (-) response means no test result.

[4] = tested on: rice (Oryza sativa); experiment: Test B flooded paddy test, plant response rating 0-100; details: Flood, 250 g ai/ha; scale 0 to 100 (0 no effect, 100 complete control); 13 to 15 days
Outline: (§2)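 Visual injury ratings against untreated controls, taken 13 to 15 days after compound was added to paddy water standing 3 cm above the soil.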

[5] = tested on: sedge, umbrella (small-flower umbrella sedge, Cyperus difformis); experiment: as above; details: Flood, 250 g ai/ha; scale 0 to 100 (0 no effect, 100 complete control); 13 to 15 days
Outline: as §2

[6] = tested on: ducksalad (Heteranthera limosa); experiment: as above; details: Flood, 250 g ai/ha; scale 0 to 100 (0 no effect, 100 complete control); 13 to 15 days
Outline: as §2

[7] = Postemergence, 250 g ai/ha, scale 0 to 100
[8] = Postemergence, 500 g ai/ha, scale 0 to 100
[9] = Postemergence, 125 g ai/ha, scale 0 to 100

O=C(c1ccccc1)c1cn(S(=O)(=O)CC(F)(F)F)nc1-c1cc(Cl)cc(Cl)c1 [Compound 3]
Plant response rating (0 to 100), Waterhemp ([1]; Postemergence, 62 g ai/ha): 90
Plant response rating (0 to 100), Waterhemp ([1]; Postemergence, 125 g ai/ha): 90
Plant response rating, Waterhemp [1, 7]: 90
Plant response rating, Waterhemp [1, 8]: 95
Plant response rating, Waterhemp ([1]; Preemergence, 62 g ai/ha): 100
Plant response rating, Waterhemp ([1]; Preemergence, 125 g ai/ha): 100
Plant response rating, Waterhemp ([1]; Preemergence, 250 g ai/ha): 100
Plant response rating, Waterhemp ([1]; Preemergence, 500 g ai/ha): 100
Plant response rating, Waterhemp ([1]; Preemergence, 0 to 100 scale (0 no effect, 100 complete control), rate 500 g ai/ha): 100
Plant response rating (0 to 100), Barnyardgrass ([2]; Postemergence, 62 g ai/ha): 0
Plant response rating, Barnyardgrass [2, 9]: 0
Plant response rating, Barnyardgrass [2, 7]: 5
Plant response rating, Barnyardgrass [2, 8]: 10
Plant response rating, Barnyardgrass ([2]; Preemergence, 62 g ai/ha): 0
Plant response rating, Barnyardgrass ([2]; Preemergence, 125 g ai/ha): 0
Plant response rating, Barnyardgrass ([2]; Preemergence, 250 g ai/ha): 0
Plant response rating, Barnyardgrass ([2]; Preemergence, 500 g ai/ha): 0
Plant response rating, Waterhemp_RES2 ([3]; 31 g ai/ha): 60
Plant response rating, Waterhemp_RES2 ([3]; 62 g ai/ha): 80
Plant response rating, Waterhemp_RES2 ([3]; 125 g ai/ha): 70
Plant response rating, Waterhemp_RES2 ([3]; 250 g ai/ha): 95
Plant response rating, Waterhemp_RES2 ([3]; 500 g ai/ha): 95
Plant response rating, Rice [4]: 0
Plant response rating, Sedge, Umbrella [5]: 0
Plant response rating, Ducksalad [6]: 0

COC(OC)(c1ccccc1)c1c[nH]nc1-c1cc(Cl)cc(Cl)c1 [Compound 13, 3-(3,5-dichlorophenyl)-4-(dimethoxyphenylmethyl)-1H-pyrazole]
Plant response rating (0 to 100), Waterhemp ([1]; Postemergence, 62 g ai/ha): 100
Plant response rating (0 to 100), Waterhemp ([1]; Postemergence, 125 g ai/ha): 100
Plant response rating, Waterhemp [1, 7]: 100
Plant response rating, Waterhemp [1, 8]: 100
Plant response rating, Waterhemp ([1]; Preemergence, 62 g ai/ha): 100
Plant response rating, Waterhemp ([1]; Preemergence, 125 g ai/ha): 100
Plant response rating, Waterhemp ([1]; Preemergence, 250 g ai/ha): 100
Plant response rating, Waterhemp ([1]; Preemergence, 500 g ai/ha): 100
Plant response rating (0 to 100), Barnyardgrass ([2]; Postemergence, 62 g ai/ha): 0
Plant response rating, Barnyardgrass [2, 9]: 0
Plant response rating, Barnyardgrass [2, 7]: 0
Plant response rating, Barnyardgrass [2, 8]: 0
Plant response rating, Barnyardgrass ([2]; Preemergence, 62 g ai/ha): 0
Plant response rating, Barnyardgrass ([2]; Preemergence, 125 g ai/ha): 0
Plant response rating, Barnyardgrass ([2]; Preemergence, 250 g ai/ha): 0
Plant response rating, Barnyardgrass ([2]; Preemergence, 500 g ai/ha): 0
Plant response rating, Waterhemp_RES2 ([3]; 125 g ai/ha): 75
Plant response rating, Waterhemp_RES2 ([3]; 500 g ai/ha): 95
Plant response rating, Rice [4]: 0
Plant response rating, Sedge, Umbrella [5]: 0
Plant response rating, Ducksalad [6]: 0

CCOC(OCC)(c1ccccc1)c1c[nH]nc1-c1cc(Cl)cc(Cl)c1 [Compound 14, 3-(3,5-dichlorophenyl)-4-(diethoxyphenylmethyl)-1H-pyrazole]
Plant response rating (0 to 100), Waterhemp ([1]; Postemergence, 62 g ai/ha): 100
Plant response rating (0 to 100), Waterhemp ([1]; Postemergence, 125 g ai/ha): 95
Plant response rating, Waterhemp [1, 7]: 100
Plant response rating, Waterhemp [1, 8]: 100
Plant response rating, Waterhemp ([1]; Preemergence, 62 g ai/ha): 100
Plant response rating, Waterhemp ([1]; Preemergence, 125 g ai/ha): 100
Plant response rating, Waterhemp ([1]; Preemergence, 250 g ai/ha): 100
Plant response rating, Waterhemp ([1]; Preemergence, 500 g ai/ha): 100
Plant response rating (0 to 100), Barnyardgrass ([2]; Postemergence, 62 g ai/ha): 0
Plant response rating, Barnyardgrass [2, 9]: 0
Plant response rating, Barnyardgrass [2, 7]: 0
Plant response rating, Barnyardgrass [2, 8]: 0
Plant response rating, Barnyardgrass ([2]; Preemergence, 62 g ai/ha): 0
Plant response rating, Barnyardgrass ([2]; Preemergence, 125 g ai/ha): 0
Plant response rating, Barnyardgrass ([2]; Preemergence, 250 g ai/ha): 0
Plant response rating, Barnyardgrass ([2]; Preemergence, 500 g ai/ha): 0
Plant response rating, Waterhemp_RES2 ([3]; 31 g ai/ha): 75
Plant response rating, Waterhemp_RES2 ([3]; 62 g ai/ha): 85
Plant response rating, Waterhemp_RES2 ([3]; 125 g ai/ha): 90
Plant response rating, Waterhemp_RES2 ([3]; 250 g ai/ha): 95
Plant response rating, Waterhemp_RES2 ([3]; 500 g ai/ha): 95
Plant response rating, Rice [4]: 0
Plant response rating, Sedge, Umbrella [5]: 0
Plant response rating, Ducksalad [6]: 0

O=C(c1ccccc1)c1cn(CO)nc1-c1cc(Cl)cc(Cl)c1 [Compound 15, [3-(3,5-dichlorophenyl)-1-(hydroxymethyl)-1H-pyrazol-4-yl]phenylmethanone]
Plant response rating (0 to 100), Waterhemp ([1]; Postemergence, 62 g ai/ha): 65
Plant response rating (0 to 100), Waterhemp ([1]; Postemergence, 125 g ai/ha): 95
Plant response rating, Waterhemp [1, 7]: 100
Plant response rating, Waterhemp [1, 8]: 100
Plant response rating, Waterhemp ([1]; Preemergence, 62 g ai/ha): 100
Plant response rating, Waterhemp ([1]; Preemergence, 125 g ai/ha): 100
Plant response rating, Waterhemp ([1]; Preemergence, 250 g ai/ha): 100
Plant response rating (0 to 100), Barnyardgrass ([2]; Postemergence, 62 g ai/ha): 0
Plant response rating, Barnyardgrass [2, 9]: 0
Plant response rating, Barnyardgrass [2, 7]: 0
Plant response rating, Barnyardgrass [2, 8]: 0
Plant response rating, Barnyardgrass ([2]; Preemergence, 31 g ai/ha): 0
Plant response rating, Barnyardgrass ([2]; Preemergence, 62 g ai/ha): 0
Plant response rating, Barnyardgrass ([2]; Preemergence, 125 g ai/ha): 0
Plant response rating, Barnyardgrass ([2]; Preemergence, 250 g ai/ha): 0
Plant response rating, Waterhemp_RES2 ([3]; 31 g ai/ha): 60
Plant response rating, Waterhemp_RES2 ([3]; 62 g ai/ha): 70
Plant response rating, Waterhemp_RES2 ([3]; 125 g ai/ha): 75
Plant response rating, Waterhemp_RES2 ([3]; 250 g ai/ha): 90
Plant response rating, Waterhemp_RES2 ([3]; 500 g ai/ha): 98
Plant response rating, Rice [4]: 0
Plant response rating, Sedge, Umbrella [5]: 0
Plant response rating, Ducksalad [6]: 0

COCC(=O)n1cc(C(=O)c2ccccc2)c(-c2cc(Cl)cc(Cl)c2)n1 [Compound 16, 1-[4-benzoyl-3-(3,5-dichlorophenyl)-1H-pyrazol-1-yl]-2-methoxyethanone]
Plant response rating (0 to 100), Waterhemp ([1]; Postemergence, 62 g ai/ha): 90
Plant response rating (0 to 100), Waterhemp ([1]; Postemergence, 125 g ai/ha): 95
Plant response rating, Waterhemp [1, 7]: 98
Plant response rating, Waterhemp [1, 8]: 100
Plant response rating, Waterhemp ([1]; Preemergence, 62 g ai/ha): 100
Plant response rating, Waterhemp ([1]; Preemergence, 125 g ai/ha): 100
Plant response rating, Waterhemp ([1]; Preemergence, 250 g ai/ha): 100
Plant response rating, Waterhemp ([1]; Preemergence, 500 g ai/ha): 100
Plant response rating (0 to 100), Barnyardgrass ([2]; Postemergence, 62 g ai/ha): 0
Plant response rating, Barnyardgrass [2, 9]: 0
Plant response rating, Barnyardgrass [2, 7]: 0
Plant response rating, Barnyardgrass [2, 8]: 0
Plant response rating, Barnyardgrass ([2]; Preemergence, 62 g ai/ha): 0
Plant response rating, Barnyardgrass ([2]; Preemergence, 125 g ai/ha): 0
Plant response rating, Barnyardgrass ([2]; Preemergence, 250 g ai/ha): 0
Plant response rating, Barnyardgrass ([2]; Preemergence, 500 g ai/ha): 0
Plant response rating, Waterhemp_RES2 ([3]; 31 g ai/ha): 95
Plant response rating, Waterhemp_RES2 ([3]; 62 g ai/ha): 95
Plant response rating, Waterhemp_RES2 ([3]; 125 g ai/ha): 75
Plant response rating, Waterhemp_RES2 ([3]; 250 g ai/ha): 98
Plant response rating, Waterhemp_RES2 ([3]; 500 g ai/ha): 100
Plant response rating, Rice [4]: 0
Plant response rating, Sedge, Umbrella [5]: 0
Plant response rating, Ducksalad [6]: 0

O=Cn1cc(C(=O)c2ccccc2)c(-c2cc(Cl)cc(Cl)c2)n1 [Compound 28]
Plant response rating (0 to 100), Waterhemp ([1]; Postemergence, 62 g ai/ha): 95
Plant response rating (0 to 100), Waterhemp ([1]; Postemergence, 125 g ai/ha): 98
Plant response rating, Waterhemp [1, 7]: 98
Plant response rating, Waterhemp [1, 8]: 100
Plant response rating, Waterhemp ([1]; Preemergence, 62 g ai/ha): 100
Plant response rating, Waterhemp ([1]; Preemergence, 125 g ai/ha): 100
Plant response rating, Waterhemp ([1]; Preemergence, 250 g ai/ha): 100
Plant response rating, Waterhemp ([1]; Preemergence, 500 g ai/ha): 100
Plant response rating (0 to 100), Barnyardgrass ([2]; Postemergence, 62 g ai/ha): 0
Plant response rating, Barnyardgrass [2, 9]: 0
Plant response rating, Barnyardgrass [2, 7]: 0
Plant response rating, Barnyardgrass [2, 8]: 0
Plant response rating, Barnyardgrass ([2]; Preemergence, 62 g ai/ha): 0
Plant response rating, Barnyardgrass ([2]; Preemergence, 125 g ai/ha): 0
Plant response rating, Barnyardgrass ([2]; Preemergence, 250 g ai/ha): 0
Plant response rating, Barnyardgrass ([2]; Preemergence, 500 g ai/ha): 0
Plant response rating, Waterhemp_RES2 ([3]; 31 g ai/ha): 50
Plant response rating, Waterhemp_RES2 ([3]; 62 g ai/ha): 60
Plant response rating, Waterhemp_RES2 ([3]; 125 g ai/ha): 80
Plant response rating, Waterhemp_RES2 ([3]; 250 g ai/ha): 85
Plant response rating, Waterhemp_RES2 ([3]; 500 g ai/ha): 90
Plant response rating, Rice [4]: 0
Plant response rating, Sedge, Umbrella [5]: 0
Plant response rating, Ducksalad [6]: 0
